Laboratory results taken from US11053251B2, “GPR35 modulators” (Prometheus Biosciences, Inc., priority 2019, dated 2021).

Target: Human GPR35 (Homo sapiens, UniProt Q9HC97, S294R)
Experiment: Alternative Beta-Arrestin Assay (JumpIn 294R Tango U2OS cells, LiveBLAzer-FRET B/G)
Assay type: cell-based
Conditions: for EC50: Human GPR35 expressing JumpIn 294R Tango U2OS cells, 5 hours treatment; for % inhibition at 50 μM: Table 2
Description: Human GPR35 expressing JumpIn (Thermo Fisher) 294R Tango U2OS cells were plated in 384-well format in clear bottom plates at a cell density of 10,000 cells/well and allowed to grow overnight. The next day, cells were treated with serially diluted test compounds for 5 hours. LiveBLAzer-FRET B/G (CCF4-AM) detection reagents were then added and cells were allowed to incubate for 2 hours before reading plates on a BioTek Cytation 5 plate reader. Zaprinast was used as a positive control for dose-response curves. In order to determine EC50 values, data w ere fit to a four-parameter dose-response curves.

Human GPR35, sequence (Q9HC97 whole entry S294R): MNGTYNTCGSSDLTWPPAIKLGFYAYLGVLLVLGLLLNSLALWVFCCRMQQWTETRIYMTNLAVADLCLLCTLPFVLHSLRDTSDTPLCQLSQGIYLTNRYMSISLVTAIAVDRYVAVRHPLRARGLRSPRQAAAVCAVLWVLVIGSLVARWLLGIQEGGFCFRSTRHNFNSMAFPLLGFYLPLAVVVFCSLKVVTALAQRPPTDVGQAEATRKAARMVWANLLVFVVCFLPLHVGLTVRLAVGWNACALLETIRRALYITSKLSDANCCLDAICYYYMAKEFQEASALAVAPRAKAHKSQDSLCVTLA

SMILES | EC50 [µM] | % inhibition at 50 μM [% inhibition at]
CCOc1cc(-c2cc(O)cc(NCC(=O)O)c2)ccc1-c1nc2[nH]nnc2c(=O)[nH]1 [Compound 223, (3′-Ethoxy-5-hydroxy-4′-(7-oxo-6,7-dihydro-3H-[1,2,3]triazolo[4,5-d]pyrimidin-5-yl)-[1,1′-biphenyl]-3-yl)glycine] | ≤ 10 | 
O=C(O)CNc1cccc(-c2ccc(-c3nc4[nH]nnc4c(=O)[nH]3)c(OC3CCCC3)c2)c1 [Compound 225, (3′-(Cyclopentyloxy)-4′-(7-oxo-6,7-dihydro-3H-[1,2,3]triazolo[4,5-d]pyrimidin-5-yl)-[1,1′-biphenyl]-3-yl)glycine] | ≤ 10 | 
O=C(O)c1ccc(-c2ccc(-c3nc4[nH]nnc4c(=O)[nH]3)c(OCCN3CCCC3)c2)cc1 [Compound 227, 4′-(7-Oxo-6,7-dihydro-3H-[1,2,3]triazolo[4,5-d]pyrimidin-5-yl)-3′-(2-(pyrrolidin-1-yl)ethoxy)-[1,1′-biphenyl]-4-carboxylic acid] |  | 66
CN(C)CCOc1cc(-c2ccc(C(=O)O)cc2)ccc1-c1nc2[nH]nnc2c(=O)[nH]1 [Compound 228, 3′-(2-(Dimethylamino)ethoxy)-4′-(7-oxo-6,7-dihydro-3H-[1,2,3]triazolo[4,5-d]pyrimidin-5-yl)-[1,1′-biphenyl]-4-carboxylic acid] |  | 16
O=C(O)CNc1cccc(-c2ccc(-c3nc4[nH]nnc4c(=O)[nH]3)c(OCCN3CCCC3)c2)c1 [Compound 230, (4′-(7-Oxo-6,7-dihydro-3H-[1,2,3]triazolo[4,5-d]pyrimidin-5-yl)-3′-(2-(pyrrolidin-1-yl)ethoxy)-[1,1′-biphenyl]-3-yl)glycine] | 10 to 50 | 
O=C(O)c1ccc(-c2ccc(-c3nc4[nH]nnc4c(=O)[nH]3)c(OC3CCCC3)c2)nc1 [Compound 231, 6-(3-(Cyclopentyloxy)-4-(7-oxo-6,7-dihydro-3H-[1,2,3]triazolo[4,5-d]pyrimidin-5-yl)phenyl)nicotinic acid] | ≤ 10 | 

Second part, the compound after the results:

EC50 [µM] | % inhibition at 50 μM [% inhibition at] | SMILES
≤ 10 |  | CCOc1cc(-c2ccc(C(=O)O)c(OCC(=O)O)c2)ccc1-c1nc2[nH]nnc2c(=O)[nH]1 [Compound 220, 3-(Carboxymethoxy)-3′-ethoxy-4′-(7-oxo-6,7-dihydro-3H-[1,2,3]triazolo[4,5-d]pyrimidin-5-yl)-[1,1′-biphenyl]-4-carboxylic acid]
 | 57 | CCOc1cc(-c2ccc(OCc3ccc(OC)cc3)c(NCC(=O)OC(C)(C)C)c2)ccc1-c1nc2[nH]nnc2c(=O)[nH]1 [Compound 221, tert-butyl (3′-ethoxy-4-((4-methoxybenzyl)oxy)-4′-(7-oxo-6,7-dihydro-3H-[1,2,3]triazolo[4,5-d]pyrimidin-5-yl)-[1,1′-biphenyl]-3-yl)glycinate]
≤ 10 |  | CCOc1cc(-c2ccc(O)c(NCC(=O)O)c2)ccc1-c1nc2[nH]nnc2c(=O)[nH]1 [Compound 222, (3′-Ethoxy-4-hydroxy-4′-(7-oxo-6,7-dihydro-3H-[1,2,3]triazolo[4,5-d]pyrimidin-5-yl)-[1,1′-biphenyl]-3-yl)glycine]
≤ 10 |  | CCOc1cc(-c2cccc(NC(C)(C)C(=O)O)c2)ccc1-c1nc2[nH]nnc2c(=O)[nH]1 [Compound 224, 2-((3′-Ethoxy-4′-(7-oxo-6,7-dihydro-3H-[1,2,3]triazolo[4,5-d]pyrimidin-5-yl)-[1,1′-biphenyl]-3-yl)amino)-2-methylpropanoic acid]
≤ 10 |  | CCOc1cc(-c2cccc(NCCC(=O)O)c2)ccc1-c1nc2[nH]nnc2c(=O)[nH]1 [Compound 226, 3-((3′-Ethoxy-4′-(7-oxo-6,7-dihydro-3H-[1,2,3]triazolo[4,5-d]pyrimidin-5-yl)-[1,1′-biphenyl]-3-yl)amino)propanoic acid]
10 to 50 |  | CN(C)CCCOc1cc(-c2ccc(C(=O)O)cc2)ccc1-c1nc2[nH]nnc2c(=O)[nH]1 [Compound 229, 3′-(3-(Dimethylamino)propoxy)-4′-(7-oxo-6,7-dihydro-3H-[1,2,3]triazolo[4,5-d]pyrimidin-5-yl)-[1,1′-biphenyl]-4-carboxylic acid]
